In PMC6628159 (Marine Drugs, 2019):
Several values for one entry are separate records, joined by “and”; a condition that tells them apart may be missing. Equal entries are not always repeated. Where two headings read alike, the source gives them in different places.

What was measured:
recombinant human HDAC3 = biological target: T1, recombinant human HDAC3 (Homo sapiens, UniProt O15379); test: Recombinant human HDAC3 enzymatic assay (Ac-peptide-AMC, fluorescence); format: biochemical; settings: 10-dose IC50 mode in duplicate, threefold serial dilution; 60 min reaction; read-out: IC50 ± SD HDAC3
T1 construct: purchased BPS Biosciences
Description: (§1) The assays were carried out by Shanghai ChemPartner Co., Ltd. (Shanghai, China). Briefly, different concentrations of compounds were incubated with recombinant human HDAC1, HDAC2, HDAC3, HDAC6, and HDAC8 (BPS Biosciences, San Diego, CA, USA) at room temperature for 15 min, which was followed by adding Ac-peptide-AMC substrates to initiate the reaction in Tris-based assay buffer. Reaction mixtures were incubated at room temperature for 60 min in the HDAC1, HDAC2, HDAC3, and HDAC6 assays, and were incubated for 240 min in the HDAC8 assay. Then a stop solution containing trypsin was added. The coupled reaction was incubated for another 90 min at 37 °C. […] IC50 values were calculated by GraphPad Prism version 4.00 Windows (GraphPad Software, San Diego, CA, USA).

recombinant human HDAC8 = biological target: T2, recombinant human HDAC8 (Homo sapiens, UniProt Q9BY41); test: Recombinant human HDAC8 enzymatic assay (Ac-peptide-AMC, fluorescence); format: biochemical
T2 construct: purchased BPS Biosciences
T2 sequence (Q9BY41 1-377): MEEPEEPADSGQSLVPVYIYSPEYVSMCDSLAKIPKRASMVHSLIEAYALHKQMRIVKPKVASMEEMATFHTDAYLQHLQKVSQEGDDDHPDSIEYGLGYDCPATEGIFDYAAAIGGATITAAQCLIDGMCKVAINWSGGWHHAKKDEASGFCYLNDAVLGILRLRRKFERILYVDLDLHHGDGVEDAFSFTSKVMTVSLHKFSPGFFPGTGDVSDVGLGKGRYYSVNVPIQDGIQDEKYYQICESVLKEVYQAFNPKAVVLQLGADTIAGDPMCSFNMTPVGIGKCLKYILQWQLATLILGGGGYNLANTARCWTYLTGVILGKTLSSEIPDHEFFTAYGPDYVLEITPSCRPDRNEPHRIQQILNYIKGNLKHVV
Description: as §1

recombinant human HDAC6 = biological target: T3, recombinant human HDAC6 (Homo sapiens, UniProt Q9UBN7); test: Recombinant human HDAC6 enzymatic assay (Ac-peptide-AMC, fluorescence); format: biochemical; settings: read-out: IC50 ± SD HDAC6
T3 construct: purchased BPS Biosciences
T3 sequence (Q9UBN7 1-1215): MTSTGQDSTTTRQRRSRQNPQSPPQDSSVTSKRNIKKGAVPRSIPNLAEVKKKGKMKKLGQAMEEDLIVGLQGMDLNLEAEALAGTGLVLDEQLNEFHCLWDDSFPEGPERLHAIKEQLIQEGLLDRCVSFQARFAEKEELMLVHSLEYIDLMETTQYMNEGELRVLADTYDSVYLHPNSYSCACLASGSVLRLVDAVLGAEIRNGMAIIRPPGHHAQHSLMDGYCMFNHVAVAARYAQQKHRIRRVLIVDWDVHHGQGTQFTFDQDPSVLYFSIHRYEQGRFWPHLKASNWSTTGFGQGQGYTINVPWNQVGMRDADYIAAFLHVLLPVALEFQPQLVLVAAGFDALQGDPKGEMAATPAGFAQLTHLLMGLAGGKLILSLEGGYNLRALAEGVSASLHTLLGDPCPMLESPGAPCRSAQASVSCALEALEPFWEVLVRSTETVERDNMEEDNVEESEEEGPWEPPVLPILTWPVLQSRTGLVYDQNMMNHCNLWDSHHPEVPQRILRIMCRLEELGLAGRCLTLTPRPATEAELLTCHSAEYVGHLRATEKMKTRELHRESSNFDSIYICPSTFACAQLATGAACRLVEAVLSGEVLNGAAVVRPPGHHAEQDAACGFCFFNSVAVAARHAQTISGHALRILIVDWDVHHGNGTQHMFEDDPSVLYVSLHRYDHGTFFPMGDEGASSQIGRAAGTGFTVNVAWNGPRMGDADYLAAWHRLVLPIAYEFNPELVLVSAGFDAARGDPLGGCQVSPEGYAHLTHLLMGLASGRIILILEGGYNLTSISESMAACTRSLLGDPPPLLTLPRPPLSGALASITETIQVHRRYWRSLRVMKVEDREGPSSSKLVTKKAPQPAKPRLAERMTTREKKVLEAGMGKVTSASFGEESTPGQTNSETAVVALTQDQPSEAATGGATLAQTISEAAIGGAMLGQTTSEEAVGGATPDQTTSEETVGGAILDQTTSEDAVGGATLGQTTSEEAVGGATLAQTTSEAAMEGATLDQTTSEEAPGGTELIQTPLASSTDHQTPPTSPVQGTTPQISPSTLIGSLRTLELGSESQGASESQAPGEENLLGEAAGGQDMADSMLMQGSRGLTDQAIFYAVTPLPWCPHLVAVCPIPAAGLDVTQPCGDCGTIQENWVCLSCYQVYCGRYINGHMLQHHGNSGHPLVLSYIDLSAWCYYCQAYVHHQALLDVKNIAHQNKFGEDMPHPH
Description: as §1

recombinant human HDAC1 = biological target: T4, recombinant human HDAC1 (Homo sapiens, UniProt Q13547); test: Recombinant human HDAC1 enzymatic assay (Ac-peptide-AMC, fluorescence); format: biochemical
T4 construct: purchased BPS Biosciences
Description: as §1

recombinant human HDAC2 = biological target: T5, recombinant human HDAC2 (Homo sapiens, UniProt Q92769); test: Recombinant human HDAC2 enzymatic assay (Ac-peptide-AMC, fluorescence); format: biochemical
T5 construct: purchased BPS Biosciences
Description: as §1

HCT116 tumor cells [1] = test: MTT assay, growth inhibition of HCT116 cells; format: cell-based; settings: seven-dose IC50 mode in duplicate, four-fold serial dilution
Description: (§2) Cells (600,000 cells/well) were seeded in 96-well plates and incubated for 24 h before being treated with various concentrations of compounds or solvent control. Cells were further incubated for 72 h and then treated with MTT and incubated for another 3 h. The media were then removed and 100 µL DMSO was added to each well. The absorbance at 550 nm was measured by a SpectraMAX340 microplate reader (Molecular Devices, Sunnyvale, CA, USA) with a reference wavelength at 690 nm.

A549 tumor cells = test: MTT assay, growth inhibition of A549 cells; format: cell-based; settings: Homo sapiens, read-out: IC50 ± SD A549 growth inhibition
Description: as §2

MDA-MB-231 tumor cells = test: MTT assay, growth inhibition of MDA-MB-231 cells; format: cell-based; settings: Homo sapiens, read-out: IC50 ± SD MDA-MB-231 growth inhibition
Description: as §2

SK-OV-3 tumor cells = test: MTT assay, growth inhibition of SK-OV-3 cells; format: cell-based; settings: seven-dose IC50 mode in duplicate, four-fold serial dilution
Description: as §2

HCT116 tumor cells [2] = settings: reported by Leusch; read-out: IC50 HCT116 growth inhibition (data in parentheses) (converted); cited from earlier work
[3] = 10-dose IC50 mode in duplicate, threefold serial dilution, 240 min reaction, read-out: IC50 ± SD HDAC8
[4] = IC50 value ratio of HDAC 1 versus HDAC 6

T5 sequence (Q92769 whole entry): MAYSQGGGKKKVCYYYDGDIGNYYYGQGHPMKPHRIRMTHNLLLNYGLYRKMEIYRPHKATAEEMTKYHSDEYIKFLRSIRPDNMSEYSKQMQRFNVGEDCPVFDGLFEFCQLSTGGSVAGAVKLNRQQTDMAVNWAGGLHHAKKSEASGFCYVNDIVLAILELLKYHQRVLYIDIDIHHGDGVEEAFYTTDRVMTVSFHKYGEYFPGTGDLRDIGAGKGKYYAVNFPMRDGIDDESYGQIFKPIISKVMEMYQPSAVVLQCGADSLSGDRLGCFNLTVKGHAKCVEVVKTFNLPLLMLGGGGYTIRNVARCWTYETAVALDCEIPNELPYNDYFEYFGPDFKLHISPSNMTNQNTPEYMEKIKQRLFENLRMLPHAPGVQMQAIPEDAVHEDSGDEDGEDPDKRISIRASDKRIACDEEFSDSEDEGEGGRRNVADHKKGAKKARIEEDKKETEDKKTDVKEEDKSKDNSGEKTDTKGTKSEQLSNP
T4 sequence (Q13547 whole entry): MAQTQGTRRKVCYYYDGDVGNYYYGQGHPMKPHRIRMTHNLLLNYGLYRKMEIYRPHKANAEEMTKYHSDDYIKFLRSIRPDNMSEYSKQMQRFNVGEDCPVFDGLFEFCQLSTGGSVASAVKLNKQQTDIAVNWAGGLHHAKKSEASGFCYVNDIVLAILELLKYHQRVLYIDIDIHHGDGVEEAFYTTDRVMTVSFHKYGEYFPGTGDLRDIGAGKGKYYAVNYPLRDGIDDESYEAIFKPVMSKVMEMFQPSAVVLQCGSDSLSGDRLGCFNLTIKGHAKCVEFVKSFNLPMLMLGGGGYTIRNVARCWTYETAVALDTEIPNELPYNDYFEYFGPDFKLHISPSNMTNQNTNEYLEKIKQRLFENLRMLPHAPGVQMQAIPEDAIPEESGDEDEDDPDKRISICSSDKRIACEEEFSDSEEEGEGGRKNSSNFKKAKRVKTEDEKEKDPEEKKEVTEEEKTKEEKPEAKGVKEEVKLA
T1 sequence (O15379 whole entry): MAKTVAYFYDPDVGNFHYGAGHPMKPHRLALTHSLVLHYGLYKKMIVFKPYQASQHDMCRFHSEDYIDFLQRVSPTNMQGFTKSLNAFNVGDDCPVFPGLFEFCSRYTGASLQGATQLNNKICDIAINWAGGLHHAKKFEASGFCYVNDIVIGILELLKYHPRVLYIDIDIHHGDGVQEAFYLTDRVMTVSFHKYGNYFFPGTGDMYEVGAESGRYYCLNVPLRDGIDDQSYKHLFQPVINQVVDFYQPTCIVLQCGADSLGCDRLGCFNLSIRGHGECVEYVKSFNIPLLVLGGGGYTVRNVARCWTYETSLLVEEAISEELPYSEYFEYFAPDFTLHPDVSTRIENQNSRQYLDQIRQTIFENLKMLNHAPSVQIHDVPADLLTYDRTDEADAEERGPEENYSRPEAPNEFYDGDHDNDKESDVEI
T1 sequence (Q9Y618 395-489 partner limits assumed): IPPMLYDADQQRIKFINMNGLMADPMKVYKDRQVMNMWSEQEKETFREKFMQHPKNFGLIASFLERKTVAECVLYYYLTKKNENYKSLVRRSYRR

| Structure (SMILES) | IC50 (recombinant human HDAC3) | IC50 (recombinant human HDAC8; [3]) | IC50 (recombinant human HDAC6) | Selectivity (HDAC1/6) (recombinant human HDAC1; [4]) | IC50 (recombinant human HDAC1; read-out: IC50 ± SD HDAC1) | IC50 (recombinant human HDAC2; read-out: IC50 ± SD HDAC2) | IC50 (recombinant human HDAC8) | other results |
| --- | --- | --- | --- | --- | --- | --- | --- | --- |
| CC(C)[C@@H]1NC(=O)[C@]2(C)CSC(=N2)c2csc(n2)CNC(=O)C[C@@H](/C(F)=C/CCS)OC1=O [Compound 15a, (5R,8S,11S/R)-11-((Z)-1-Fluoro-4-mercaptobut-1-en-1-yl)-8-isopropyl-5-methyl-10-oxa-3,17-dithia-7,14,19,20-tetraazatricyclo[14.2.1.12,5]icosa-1(18),2(20),16(19)-triene-6,9,13-trione] | 39.2 nM and 39 nM | 8.5 ± 2.5 nM | 300 ± 5 nM | 68 | 4.4 ± 0.2 nM | 21 ± 0.3 nM | – | selectivity towards HDAC 1 over HDAC 6 (recombinant human HDAC1; [4]): about 68 fold |
| C[C@@]12CSC(=N1)c1csc(n1)CNC(=O)C[C@@H](/C(F)=C/CCS)OC(=O)[C@H](Cc1ccccc1)NC2=O [Compound 15b] | 37.1 ± 0.7 nM | 17.6 ± 4.1 nM | 338 ± 17 nM | 80 | 4.2 ± 0.3 nM | 16.2 ± 0.4 nM | – | – |
| CCCCCCCC(=O)SCC/C=C(\F)[C@@H]1CC(=O)NCc2nc(cs2)C2=N[C@@](C)(CS2)C(=O)N[C@@H](C(C)C)C(=O)O1 [Compound 16a, S-((Z)-4-Fluoro-4-((5R,8S,11S/R)-8-isopropyl-5-methyl-6,9,13-trioxo-10-oxa-3,17-dithia-7,14,19,20-tetraazatricyclo[14.2.1.12,5]icosa-1(18),2(20),16(19)-trien-11-yl)but-3-en-1-yl) octanethioate] | – | – | – | – | – | 1817 ± 17 nM | 255 ± 92 nM | IC50 (HCT116 tumor cells [1]; Homo sapiens, HCT-116, MTT, 72 h, read-out: IC50 ± SD HCT116 growth inhibition): 810 ± 130 nM; IC50 (recombinant human HDAC1): 385 ± 45 nM; IC50 (A549 tumor cells; A549, MTT, 72 h, seven-dose IC50 mode in duplicate, four-fold serial dilution): 520 ± 120 nM; IC50 (MDA-MB-231 tumor cells; MDA-MB-231, MTT, 72 h, seven-dose IC50 mode in duplicate, four-fold serial dilution): 3850 ± 440 nM; IC50 (SK-OV-3 tumor cells; Homo sapiens, SK-OV-3, MTT, 72 h, read-out: IC50 ± SD SK-OV-3 growth inhibition): 250 ± 130 nM |
| CCCCCCCC(=O)SCC/C=C/[C@@H]1CC(=O)NCc2nc(cs2)C2=N[C@@](C)(CS2)C(=O)N[C@@H](C(C)C)C(=O)O1 [Largazole, reference compound] | – | – | – | – | – | – | 120 ± 58 nM | IC50 (HCT116 tumor cells [1]; Homo sapiens, HCT-116, 72 h, read-out: IC50 ± SD HCT116 growth inhibition, MTT, 72 h): 184 nM; IC50 (HCT116 tumor cells [1]; read-out: IC50 ± SD HCT116 growth inhibition, MTT, 72 h): 180 ± 10 nM; IC50 (recombinant human HDAC1; 10-dose IC50 mode in duplicate, threefold serial dilution, 60 min reaction, read-out: IC50 ± SD HDAC1): 228 ± 34 nM; IC50 (recombinant human HDAC2): 1520 ± 15 nM; IC50 (A549 tumor cells; A549, 72 h): 460 ± 100 nM; IC50 (HCT116 tumor cells [2]): 44 nM; IC50 (MDA-MB-231 tumor cells; MDA-MB-231, 72 h): 1370 ± 410 nM; IC50 (SK-OV-3 tumor cells; Homo sapiens, SK-OV-3, 72 h, read-out: IC50 ± SD SK-OV-3 growth inhibition, MTT, 72 h): 34 nM; IC50 (SK-OV-3 tumor cells; read-out: IC50 ± SD SK-OV-3 growth inhibition, MTT, 72 h): 30 ± 10 nM |
